# Patent publication US20080227738A1, “Compositions and methods for cell dedifferentiation and tissue regeneration” (University of Utah Research Foundation, priority 2000, published 2008)
# Tests used:
# zebrafish fin regenerate [1] = assay: BrdU incorporation in regenerating zebrafish fins; format: in vivo; details: 17 μM
# Procedure: BrdU was dissolved in PBS and fish were treated at a final concentration of 100 μg/ml. For one experiment, fins were amputated and allowed to regenerate for 18 or 24 hours in the absence or presence of 17 μM Ri, with BrdU present during the final 6 hours of regeneration. To test the effects of Ri on proliferation in the established blastema, fins were first allowed to regenerate for 40 hours. Then, untreated fish regenerated an additional 2 hours before a 6 hour incubation with BrdU, while Ri-treated fish underwent a 2 hour R1 preincubation period before a 6 hour period with both Ri and BrdU.
# Fins were collected and fixed in 70% ethanol/2 mM glycine overnight, and 10 μm sections were made from frozen blocks. These sections were stained for BrdU incorporation using a detection kit (Roche; Basel, Switzerland), and counterstained with hematoxylin. Sections from untreated and Ri-treated fins were simultaneously processed and developed. […]
# BrdU incorporation was used to analyze DNA replication and cellular proliferation. […] To determine if blastemal cells underwent DNA replication in the presence of Ri, BrdU incorporation in fins briefly treated with Ri during regenerative outgrowth (40-48 hours postamputation) was analyzed. […]
# C2C12 myotubes = assay: Characterization of RNLE activity: pretreated extract, BrdU S phase reentry in C2C12 myotubes; format: cell-based, mouse; details: C2C12 myotubes with RNLE
# Procedure: C2C12 myotubes were plated at low density in DM as described above. Regeneration extract was treated in one of three ways: (1) boiled for 5 minutes; (2) digested with 1% trypsin for 30 minutes at 37° C.; or (3) taken through several freeze/thaw cycles. In three separate experiments, the treated extracts were applied to cultured myotubes at a concentration of 0.3 mg/ml with media and extract changed daily. Immediately after the extract was digested with 1% trypsin, the trypsin was inactivated by dilution in DM in which the cells were cultured. In the freeze/thaw experiments, extract activity was tested after both 2 and 3 freeze/thaw cycles. The effect of the pretreated extracts on myotube S phase reentry was assessed after 4 days of treatment by performing BrdU incorporation assays. The results were compared to BrdU incorporation in myotubes cultured in DM containing RNLE (positive control) and myotubes cultured in DM alone or DM containing nonRNLE (negative controls).
# The dedifferentiation signal(s) found in the RNLE could belong to a number of different types of biomolecules, including proteins, lipids, nucleic acids, and polysaccharides. To characterize the nature of one or more of the active components of the RNLE, the inventors subjected the extract to a number of different conditions. […]
# insulin receptor = biological target: T1, insulin receptor (Homo sapiens, UniProt P06213); details: mammalian cells; cited from earlier work
# T1 construct: host or cells: mammalian cells (not specified)
# T1 sequence (P06213 28-1382): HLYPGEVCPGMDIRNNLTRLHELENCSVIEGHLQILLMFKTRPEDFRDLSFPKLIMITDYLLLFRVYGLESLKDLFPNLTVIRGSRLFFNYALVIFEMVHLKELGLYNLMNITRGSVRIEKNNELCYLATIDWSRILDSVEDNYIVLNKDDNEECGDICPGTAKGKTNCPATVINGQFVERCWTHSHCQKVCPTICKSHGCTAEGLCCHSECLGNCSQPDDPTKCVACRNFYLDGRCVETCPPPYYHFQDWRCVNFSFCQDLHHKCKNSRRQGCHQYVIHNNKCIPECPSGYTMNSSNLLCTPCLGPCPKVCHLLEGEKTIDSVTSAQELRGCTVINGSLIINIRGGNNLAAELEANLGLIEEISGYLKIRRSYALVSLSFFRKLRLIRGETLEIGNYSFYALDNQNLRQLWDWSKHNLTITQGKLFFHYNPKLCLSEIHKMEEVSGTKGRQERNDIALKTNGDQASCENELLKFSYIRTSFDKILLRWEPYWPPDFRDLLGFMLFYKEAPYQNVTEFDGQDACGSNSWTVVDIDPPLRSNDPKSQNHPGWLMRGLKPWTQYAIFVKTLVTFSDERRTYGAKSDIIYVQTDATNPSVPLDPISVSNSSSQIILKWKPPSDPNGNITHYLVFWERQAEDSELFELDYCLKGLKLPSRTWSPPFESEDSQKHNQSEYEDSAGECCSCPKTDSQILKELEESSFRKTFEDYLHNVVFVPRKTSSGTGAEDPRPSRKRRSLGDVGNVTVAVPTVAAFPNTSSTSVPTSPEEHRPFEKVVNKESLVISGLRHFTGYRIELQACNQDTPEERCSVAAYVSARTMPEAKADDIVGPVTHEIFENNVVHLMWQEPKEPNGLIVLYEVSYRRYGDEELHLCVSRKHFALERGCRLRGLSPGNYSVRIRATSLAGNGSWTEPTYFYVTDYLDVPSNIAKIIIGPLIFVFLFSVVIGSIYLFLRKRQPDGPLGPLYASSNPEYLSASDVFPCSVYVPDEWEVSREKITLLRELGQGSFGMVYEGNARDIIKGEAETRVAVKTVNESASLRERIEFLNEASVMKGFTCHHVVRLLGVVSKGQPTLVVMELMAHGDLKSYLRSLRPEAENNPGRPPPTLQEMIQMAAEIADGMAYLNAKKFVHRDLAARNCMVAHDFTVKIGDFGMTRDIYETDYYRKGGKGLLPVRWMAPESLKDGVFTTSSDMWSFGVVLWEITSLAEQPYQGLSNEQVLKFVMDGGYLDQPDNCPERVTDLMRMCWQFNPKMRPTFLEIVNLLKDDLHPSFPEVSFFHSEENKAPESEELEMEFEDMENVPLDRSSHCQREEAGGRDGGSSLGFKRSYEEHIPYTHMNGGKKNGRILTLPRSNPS
# [2] = biological target: Flkl, a vascular endothelial growth factor receptor (Homo sapiens, UniProt P35968); details: cited from earlier work
# Chain of Flkl, a vascular endothelial growth factor receptor (P35968 20-1356): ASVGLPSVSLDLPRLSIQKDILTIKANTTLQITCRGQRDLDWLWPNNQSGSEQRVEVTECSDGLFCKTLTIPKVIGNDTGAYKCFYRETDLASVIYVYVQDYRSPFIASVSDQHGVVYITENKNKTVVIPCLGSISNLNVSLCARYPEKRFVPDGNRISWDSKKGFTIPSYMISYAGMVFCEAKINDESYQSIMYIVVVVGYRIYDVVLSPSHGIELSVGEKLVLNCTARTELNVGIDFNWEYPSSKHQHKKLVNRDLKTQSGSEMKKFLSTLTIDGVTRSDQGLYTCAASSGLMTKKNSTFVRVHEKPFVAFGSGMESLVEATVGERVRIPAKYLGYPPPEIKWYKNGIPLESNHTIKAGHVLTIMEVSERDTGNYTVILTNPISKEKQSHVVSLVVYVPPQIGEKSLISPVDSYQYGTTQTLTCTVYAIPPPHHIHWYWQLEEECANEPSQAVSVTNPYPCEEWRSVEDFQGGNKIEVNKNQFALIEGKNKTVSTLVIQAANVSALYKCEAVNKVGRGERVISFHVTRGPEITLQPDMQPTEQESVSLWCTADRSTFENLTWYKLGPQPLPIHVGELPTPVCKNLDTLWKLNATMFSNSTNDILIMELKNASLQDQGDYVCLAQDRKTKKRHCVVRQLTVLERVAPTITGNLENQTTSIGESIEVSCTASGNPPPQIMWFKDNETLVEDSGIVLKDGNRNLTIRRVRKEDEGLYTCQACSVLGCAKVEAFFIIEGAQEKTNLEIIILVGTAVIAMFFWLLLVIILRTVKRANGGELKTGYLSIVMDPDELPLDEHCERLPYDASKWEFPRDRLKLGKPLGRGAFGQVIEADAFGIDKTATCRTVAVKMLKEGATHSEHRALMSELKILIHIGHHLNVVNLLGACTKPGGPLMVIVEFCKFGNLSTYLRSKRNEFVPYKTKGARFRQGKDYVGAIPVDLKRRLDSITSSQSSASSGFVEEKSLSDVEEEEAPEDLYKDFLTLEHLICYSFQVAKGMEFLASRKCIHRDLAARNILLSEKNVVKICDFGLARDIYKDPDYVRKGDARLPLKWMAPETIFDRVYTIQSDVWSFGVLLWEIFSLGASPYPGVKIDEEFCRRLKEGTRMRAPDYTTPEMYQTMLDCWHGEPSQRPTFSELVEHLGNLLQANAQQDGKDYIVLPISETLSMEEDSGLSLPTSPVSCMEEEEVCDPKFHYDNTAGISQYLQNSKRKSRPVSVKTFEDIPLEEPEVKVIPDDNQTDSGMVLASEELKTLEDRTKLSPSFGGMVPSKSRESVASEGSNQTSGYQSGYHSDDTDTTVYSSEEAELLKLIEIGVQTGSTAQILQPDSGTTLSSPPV
# serine threonine kinases = details: cited from earlier work
# [3] = Tolerability of inhibitor solution in adult zebrafish; format: in vivo; details: 1.7 μM or 17 μM in fish water, 0.01% DMSO
# Procedure: (§1) SU5402 (Ri; SUGEN, South San Francisco, Calif.) was dissolved in dimethylsulfoxide (DMSO) and added to fish water at a final concentration of 1.7 μM or 17 μM (0.01% DMSO). Up to 10 fish were treated in one liter of water, and tanks were maintained in the dark at 31-33° C. with SU5402 solutions replaced every 24 hours.
# zebrafish embryos = assay: Application to developing zebrafish embryos; format: in vivo; details: at the IC50 concentration (printed 10-20 μl)
# Procedure: The IC50 of Ri with respect to Fgfrl activity in mammalian cells was shown previously to be […] (Mohammadi et al., 1997). […] Such embryos appear remarkably similar to those injected with mRNA encoding a dominant-negative Fgfrl (Griffin et al., 1995).
# [4] = biological target: T2, epidermal growth factor receptor (Homo sapiens, UniProt P00533); details: mammalian cells; cited from earlier work
# T2 construct: host or cells: mammalian cells (not specified)
# T2 sequence (P00533 25-1210): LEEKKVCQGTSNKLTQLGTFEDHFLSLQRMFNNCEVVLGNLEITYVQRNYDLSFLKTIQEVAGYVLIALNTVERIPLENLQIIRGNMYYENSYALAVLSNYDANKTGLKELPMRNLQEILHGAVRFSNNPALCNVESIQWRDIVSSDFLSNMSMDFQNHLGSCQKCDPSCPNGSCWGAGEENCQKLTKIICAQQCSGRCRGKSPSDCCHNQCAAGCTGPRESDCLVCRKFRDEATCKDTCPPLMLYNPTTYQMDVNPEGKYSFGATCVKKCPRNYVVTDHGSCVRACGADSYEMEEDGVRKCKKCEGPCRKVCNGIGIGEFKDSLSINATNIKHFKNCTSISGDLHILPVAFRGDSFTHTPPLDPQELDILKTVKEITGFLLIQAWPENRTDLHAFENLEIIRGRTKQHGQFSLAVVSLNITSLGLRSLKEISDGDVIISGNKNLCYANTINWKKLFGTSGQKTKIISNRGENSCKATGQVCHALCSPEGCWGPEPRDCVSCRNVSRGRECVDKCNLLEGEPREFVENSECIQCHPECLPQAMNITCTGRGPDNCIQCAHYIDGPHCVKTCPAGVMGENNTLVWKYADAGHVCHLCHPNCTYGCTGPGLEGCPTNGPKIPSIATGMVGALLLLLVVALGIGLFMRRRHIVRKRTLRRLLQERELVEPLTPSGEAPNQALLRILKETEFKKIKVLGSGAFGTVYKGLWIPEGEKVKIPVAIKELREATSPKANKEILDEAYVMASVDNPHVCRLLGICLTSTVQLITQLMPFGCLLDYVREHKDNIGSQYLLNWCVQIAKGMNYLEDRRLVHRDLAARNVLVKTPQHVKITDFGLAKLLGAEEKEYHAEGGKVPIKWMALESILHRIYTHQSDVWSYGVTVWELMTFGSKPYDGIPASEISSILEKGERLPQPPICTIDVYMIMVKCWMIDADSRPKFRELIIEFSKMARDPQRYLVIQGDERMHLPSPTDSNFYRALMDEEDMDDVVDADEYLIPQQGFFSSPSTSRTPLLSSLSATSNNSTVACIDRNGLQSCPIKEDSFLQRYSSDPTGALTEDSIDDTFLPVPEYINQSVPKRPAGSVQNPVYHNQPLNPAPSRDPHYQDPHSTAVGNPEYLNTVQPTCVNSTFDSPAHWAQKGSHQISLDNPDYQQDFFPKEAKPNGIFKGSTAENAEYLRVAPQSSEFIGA
# [5] = system: platelet-derived growth factor receptor; details: mammalian cells; cited from earlier work
# zebrafish fin regenerate [6] = assay: Whole mount in situ hybridization of marker genes in zebrafish fin regenerates; format: in vivo
# From the text: To generate antisense RNA probes with a dioxigenin labeling kit (Boehringer Mannheim), a 2.8 kb fgfr1 cDNA fragment, a 1.7 kb fgfr2 cDNA fragment, a 0.6 kb fgfr3 cDNA fragment, a 1.5 kb fgfr4 cDNA fragment (Thisse et al., 1995), a 1.2 kb msxb cDNA fragment, a 2.0 kb msxc cDNA (Akimenko et al., 1995), a 0.6 kb fgf8(ace) cDNA fragment (Reifers et al., 1998), a 2.2 kb fgf4.1 cDNA (Draper et al., 1999), a 2.4 kb wfgf cDNA (Draper et al., 1999), a 3.8 kb β-catenin cDNA (Kelly et al., 1995), a 2.6 kb flkl cDNA fragment (Liao et al., 1997), and a 1.8 kb shh cDNA (Krauss et al., 1993) were used. Fragments containing zebrafish fgfr cDNA sequences were isolated by degenerate PCR using known fgfr tyrosine kinase domain sequences of other species. The assignment of fgfr genes was based on homology comparisons; these sequences have been deposited in Genbank.
# Fin regenerates were fixed overnight at 4° C. in 4% paraformaldehyde in phosphate-buffered saline (PBS), washed briefly in 2 changes of PBS, and transferred to methanol for storage at −20° C. Fins were rehydrated stepwise through ethanol in PBS and then washed in 4 changes of PBS-0.1% polyoxyethylenesorbitan monolaurate (Tween-20; PBT). Then, fins were incubated with 10 μg/ml proteinase K in PBT for 30 minutes and rinsed twice in PBT before 20 minutes refixation. After five washes with PBT, fins were prehybridized at 65° C. for one hour in buffer consisting of 50% formamide, 5×SSC (750 mM NaCl, 75 mM sodium citrate, pH 7.0), 0.1% Tween-20, 50 μg/ml heparin, and 500 μg/ml yeast RNA (pH to 6.0 with citric acid), and then hybridized overnight in hybridization buffer including 0.5 μg/ml dioxigenin-labeled RNA probe. Fins were washed at 65° C. for 10 minutes each in 75% hybridization buffer/25% 2×SSC, 50% hybridization buffer/50% 2×SSC, and 25% hybridization buffer/75% 2×SSC, followed by 2 washes for 30 minutes each in 0.2×SSC at 65° C. Further washes for 5 minutes each were done at room temperature in 75% 0.2×SSC/25% PBT, 50% 0.2×SSC/50% PBT, and 25% 0.2×SSC/75% PBT. After a one hour incubation period in PBT with 2 mg/ml bovine serum albumin, fins were incubated for 2 hours in the same solution with a 1:2000 dilution of fin-preabsorbed, anti-dioxigenin antibody coupled to alkaline phosphatase (Boehringer Mannheim). For the alkaline phosphatase reaction, fins were first washed 3 times in reaction buffer (100 mM Tris-HCl pH 9.5, 50 mM MgCl2, 100 mM NaCl, 0.1% Tween-20, 1 mM levamisol) and then incubated in reaction buffer with 1× nitro blue terazolium/5-bromo-4-chloro-3-indolyl-phosphate (NBT/BCIP) substrate. In general, positive signals were obtained in 0.5-3 hours. Following the staining reaction, fins were washed in several changes of PBT and fixed in 4% paraformaldehyde in PBS. To obtain sections of fin regenerates, fins were first mounted in 1.5% agarose/5% sucrose and then incubated in 30% sucrose overnight. Frozen blocks were sectioned at 14 μm and observed using Nomarski optics.
# For each probe, at least 7 fins were examined for expression at 0, 6, 12, 18, 24, 48, and 96 hours post-amputation. For 18, 24, and 48 hour timepoints with fgfr1, msxb, msxc, and wfgf probes, 25-100 fins were examined in several different experiments. Experiments with sense strand RNA probes were performed with initial antisense experiments to estimate the specificity of signals. To assess gene expression in pharmacologically treated fins, an equal number of untreated fins were also examined.
# To investigate the molecular effects of this outgrowth inhibition by Ri, marker expression was examined following a 24 hour R1 application period. […] Similar effects on msxc expression were observed (n=8). msxb expression was not detected in 24 or 48 hour fin regenerates exposed to R1 for 48 hours (n=18). Thus, Fgf signaling is required for blastema maintenance and regenerative outgrowth, but is not crucial for other processes including melanocyte migration or bone deposition. […]
# [7] = system: zebrafish caudal fin regenerate; assay: Zebrafish caudal fin regeneration under Fgfr1 inhibitor treatment; format: in vivo
# Procedure: Zebrafish 3-6 months of age were obtained from EKKWill Waterlife Resources (Gibsonton, Fla.) and used for caudal fin amputations. Fish were anaesthetized in tricaine and amputations were made using a razor blade, removing one-half of the fin. Animals were allowed to regenerate for various times in water kept at 31-33° C.; these temperatures facilitate more rapid regeneration than more commonly used temperatures of 25-28° C. (Johnson and Weston, 1995). Fish were then anaesthetized and the fin regenerate was removed for analyses.
# as §1
# To determine if signaling through Fgfrl is required for regeneration, zebrafish were treated for 96 hours with Ri immediately following amputation. Treatment of zebrafish with 1.7 μM Ri (0.5 mg/liter) inhibited fin regeneration to varying degrees.
# To determine if a blastema forms in the absence of Fgf signaling, Ri-treated fin regenerates were examined morphologically.
# Because wfgf and fgfr1 expression domains were maintained in the fin regenerate during outgrowth, and as blastemal cell BrdU incorporation was blocked by Ri, Fgf signaling likely participates in blastemal maintenance/regenerative outgrowth. To test this hypothesis, the effects of Ri on ongoing regenerates were examined.
# [8] = fins regenerated normally 24 or 48 hours, then 24 hour application, of 18 treated fins
# [9] = treated from amputation, msxb: 21 fins, msxc: 8 fins
# [10] = 1.7 μM (0.5 mg/liter), 96 hours from amputation, of 10 fins examined
# [11] = Ri-treated fin regenerates, morphology
smiles,measurement,setting,value
Cc1c[nH]c(/C=C2\C(=O)Nc3ccccc32)c1CCC(=O)O [SU5402],Proximal mesenchymal cell BrdU labeling,zebrafish fin regenerate [1]; 12-18 hours and 18-24 hours postamputation,Normal
same,Blastemal cell incorporation of BrdU,"zebrafish fin regenerate [1]; brief treatment during regenerative outgrowth, 40-48 hours postamputation",greatly reduced
same,BrdU: effect of Fgfr inhibitor on RNLE S phase reentry,C2C12 myotubes,No effect
same,Concentration at which insulin receptor is not blocked,insulin receptor,greater than 50 μM
same,Concentration that inhibits Flkl,[2],10 to 20 µM
same,Effects on activities of numerous serine threonine kinases,serine threonine kinases,no effects
same,Survival and behavior in inhibitor solution,[3],survived normally and demonstrated no unusual behavior
same,Effect on developing zebrafish embryos,zebrafish embryos,dramatic truncation of posterior structures
same,Concentration at which epidermal growth factor receptor is not blocked,[4],greater than 50 μM
same,Concentration at which platelet-derived growth factor receptor is not blocked,[5],greater than 50 μM
same,msxb expression after 48 hour exposure,"zebrafish fin regenerate [6]; 24 or 48 hour fin regenerates exposed for 48 hours, n=18",not detected
same,Fins with detectable shh transcripts,"zebrafish fin regenerate [6]; 48 or 72 hour fin regenerates treated for 24 hours, of 18 fins",0
same,Epidermal wfgf expression,"zebrafish fin regenerate [6]; 48 or 72 hour regenerates, 24 hour application, n=16",No significant reduction
same,β-catenin expression,"zebrafish fin regenerate [6]; Ri-treated fins, n=7",normal
same,Fins with low levels of msxb expression,zebrafish fin regenerate [6]; [8],8
same,Fins with no detectable msxb expression,zebrafish fin regenerate [6]; [8],10
same,"msxb and msxc expression, 24 hour regenerates",zebrafish fin regenerate [6]; [9],extremely low or undetectable
same,"msxb and msxc expression, 48 hour regenerates",zebrafish fin regenerate [6]; [9],undetectable
same,Fins that regenerated normally,[7]; [10],4
same,Fins with a regenerative block,[7]; [10],one
same,Fins with slight regenerative defects,[7]; [10],5
same,Fin regeneration,"[7]; 17 μM (5 mg/liter), 96 hours from amputation, all animals, n=9",complete regenerative blocks
same,Blastemal morphogenesis,[7]; [11],did not occur
same,Wound epidermis over the fin stumps,[7]; [11],consistently formed
same,Outgrowth of ongoing regenerates,[7]; treatment of 24-72 hour fin regenerates,inhibited further outgrowth
same,New bone deposition,[7]; treatment of ongoing fin regenerates,not interrupted
